Patent publication US20240082340A1 (Biohaven Therapeutics Ltd., priority 2021, published 2024)

What was measured:
[1] = taken with meals; cited from earlier work
[2] = test system: patients diagnosed with Alzheimer's disease of mild-to-moderate severity; assay: T2 Protect AD trial: CDR-Sum of Boxes; assay type: in vivo, human; conditions: Week 48; for CDR01-Sum of Boxes, Model Estimates, LSMean (SE) Difference: placebo vs troriluzole
Description: The CDR-SOB (Hughes, Berg, Danziger, Coben, & Martin, 1982) is a validated composite rating of cognition and everyday functioning used in longitudinal AD research which incorporates both informant input and direct assessment of performance. It assesses through semi structured interview 3 cognitive domains including memory, orientation, and judgement/problem solving and 3 everyday functional domains including community affairs, home and hobbies and personal care. There are 5 levels of impairment from none CDR=0 to severe CDR=3. The individual domain scores are added to create a sum of the box scores.
(§1) The T2 Protect AD trial has been conducted, which is a Phase 2/3, randomized, double-blind, placebo-controlled study evaluating the efficacy and safety of troriluzole in patients diagnosed with Alzheimer's disease of mild-to-moderate severity (Mini-Mental State Examination [MMSE] scores of 14-24; mild: 20-24, moderate: 14-19).

[3] = test system: patients diagnosed with Alzheimer's disease of mild-to-moderate severity; assay: T2 Protect AD trial: Neuropsychiatric Inventory (NPI); assay type: in vivo, human; conditions: for NPI score LS mean change, difference versus placebo: after 48 weeks, troriluzole minus placebo
Description: The NPI is a well-validated, reliable, multi-item instrument to assess psychopathology in AD dementia based on the results of an interview with the study partner (Cummings, 1997). The NPI evaluates both the frequency and severity of 10 neuropsychiatric features, including delusions, hallucinations, agitation/aggression, dysphoria, anxiety, euphoria, apathy, disinhibition, irritability and lability, and aberrant motor behavior, as well as evaluates sleep and appetite/eating disorders. Frequency assessments range from 1 (occasionally, less than once per week) to 4 (very frequently, once or more per day or continuously). Severity assessments range from 1 (mild) to 3 (severe). The score for each subscale is the product of severity and frequency and the total score is the sum of all subscales.
as §1

[4] = test system: patients diagnosed with Alzheimer's disease of mild-to-moderate severity; assay: T2 Protect AD trial: volumetric MRI hippocampal volume (Quarc); assay type: in vivo, human; conditions: for Hippocampal Volume Change, Model Estimates, LSMean (SE) Difference: Week 48, placebo vs troriluzole
Description: vMRI allows the in vivo assessment of brain structure volume and provides a measure of atrophy rate. […] Atrophy of the medial temporal lobe, including hippocampus and entorhinal cortex, has long been described in vMRI studies of AD. Hippocampal volume derived from MRI correlates with histological hippocampal volume and degree of neuronal loss and AD pathology, and entorhinal cortical thickness change appears to be an early and sensitive indicator of neurodegeneration associated with AD (Holland et al., 2009; Jack et al., 2004).
Participants will undergo vMRI scans of the brain at screening, week 24 and week 48 in order to assess for changes in brain volumes that may be associated with clinical change due to treatment with BHV-4157.
Volumetric MRI scans will use the same imaging protocol, which will include a localizer scan, a 3D T1-weighted sagittal acquisition (MPRAGE or IR-SPGR), a T2-weighted FLAIR axial acquisition, a T2* gradient recalled echo axial acquisition for magnetic susceptibility, and a diffusion weighted axial acquisition to assess for restricted diffusion.
Images will be checked for image quality and adherence to scanning protocols. 3D T1-weighted datasets passing quality checks will be corrected for spatial distortion and for intensity variation. Screening and follow-up datasets for each participant will be spatially registered to one another using rigid-body registration followed by nonlinear registration and neuroanatomic parcellation to quantify whole-brain and subregional volumetric change on a patient-by patient basis.
Whole brain volume (WBV, excluding cerebellum), bilateral ventricular volume and bilateral hippocampal volume will be measured. Quantitative anatomical regional change (Quarc) will be used as the computational MR image processing application. Detail for the statistical computations is given in the Statistical Analytical Plan (SAP).
as §1

[5] = test system: patients diagnosed with Alzheimer's disease of mild-to-moderate severity; assay: T2 Protect AD trial: ADAS-Cog 11; assay type: in vivo, human; conditions: for ADAS-Cog Total Score, Model Estimates, LSMean (SE): change from baseline; for ADAS-Cog Total Score, Model Estimates, LSMean (SE) Difference: placebo vs troriluzole
Description: (§2) The ADAS-Cog 11 evaluates memory (word recall, word recognition), reasoning (following commands), language (naming, comprehension), orientation, ideational praxis (placing a letter in an envelope) and constructional praxis (copying geometric designs). Ratings of spoken language, language comprehension, word finding difficulty, and ability to remember test instructions are also obtained. The test is scored in terms of errors, with higher scores reflecting poorer performance and greater impairment. Scores can range from 0 (best) to 70 (worse).
The primary efficacy endpoint is the within-participant change in ADAS-Cog 11 from baseline to week 48, compared between the treatment group and the placebo group.
as §2, with “11 (Rosen, Mohs, & Davis, 1984) is a structured scale that” for “11”
as §1

[6] = after 48 weeks, mild AD, placebo minus troriluzole
[7] = Week 48, mild-to-moderate AD, 280 mg once daily

Nc1nc2ccc(OC(F)(F)F)cc2s1 [Riluzole, riluzole]
food effect on exposure [1]: reduced exposure when taken with meals

CN(CC(=O)Nc1nc2ccc(OC(F)(F)F)cc2s1)C(=O)CNC(=O)CN [Troriluzole, troriluzole]
outcome on co-primary endpoint CDR-SB ([2]; mild-to-moderate AD): did not meet the study's pre-specified co-primary endpoints | CDR01-Sum of Boxes, Model Estimates, LSMean (SE) Difference ([2]; mild AD patients only): −0.3 (0.40) | CDR01-Sum of Boxes, Model Estimates, LSMean (SE) Difference ([2]; mild-to-moderate AD): −0.2 (0.28) | NPI across subgroups versus placebo ([3]; Week 48, only mild AD, only moderate AD, only ApoE4 positive, only ApoE4 negative patients): numerical differences of a potential benefit | NPI score LS mean change, difference versus placebo ([3]; mild AD): −2.1 points | NPI score LS mean change, difference versus placebo ([3]; mild-to-moderate AD): −1.5 points | Hippocampal Volume Change, Model Estimates, LSMean (SE) Difference ([4]; mild AD patients only): −0.5 (0.38) | Hippocampal Volume Change, Model Estimates, LSMean (SE) Difference ([4]; mild-to-moderate AD): 0.0 (0.26) | hippocampal volume LS mean percent deformation change, difference versus placebo [4, 6]: −0.5% | key secondary measure of hippocampal volume assessed by MRI, versus placebo ([4]; overall population): did not differentiate from placebo | ADAS-Cog Total Score, Model Estimates, LSMean (SE) ([5]; Week 48, mild AD patients only): 4.2 | ADAS-Cog Total Score, Model Estimates, LSMean (SE) [5, 7]: 6.7 (0.70) | ADAS-Cog Total Score, Change from Baseline, Mean (SD) ([5]; Week 48, mild AD patients only): 3.9 | ADAS-Cog Total Score, Analysis Value, Mean (SD) ([5]; Week 48, mild AD patients only, 280 mg once daily): 26.2 | outcome on co-primary endpoint ADAS-cog ([5]; Week 48, mild-to-moderate AD): did not meet the study's pre-specified co-primary endpoints | ADAS-Cog Total Score, Change from Baseline, Mean (SD) [5, 7]: 5.8 (7.40) | ADAS-Cog Total Score, Change from Baseline, Median [5, 7]: 6.0 | ADAS-Cog Total Score, Model Estimates, LSMean (SE) Difference ([5]; Week 48, mild AD patients only): 0.7 (1.02) | ADAS-Cog Total Score, Model Estimates, LSMean (SE) Difference ([5]; Week 48, mild-to-moderate AD): 0.0 (0.93) | ADAS-Cog11 score LS mean change, difference versus placebo [5, 6]: 0.7 points
